According to the NIST ThermoML archive (doi:10.1021/je700714m):
± gives the expanded uncertainty stated by the source.

Tests used:
[1] = xn = mol fraction of the nth substance listed; settings: for mass density / speed of sound / viscosity: 100 kPa, Liquid
[2] = refractive index (Na D-line) (dimensionless); xn = mol fraction of the nth substance listed; settings: 100 kPa, Liquid

COc1ccc(C=O)cc1 [4-methoxybenzaldehyde] + Clc1ccccc1
Settings | mass density, [1] [kg/m3] | refractive index, [2] | speed of sound, [1] [m/s] | surface tension liquid-gas, [1] [mN/m] | viscosity, [1] [mPa·s]
303.15 K, x1 = 0.144 | 1105.1 ± 4.7 | 1.5589 ± 0.0012 | 1339 ± 180 | 43.12 ± 2.3 | 0.8478 ± 0.086
303.15 K, x1 = 0.2517 | 1107 ± 4.7 | 1.5587 ± 0.0012 | 1383 ± 190 | 50.12 ± 2.6 | 1.023 ± 0.1
303.15 K, x1 = 0.3354 | 1109.1 ± 4.7 | 1.5586 ± 0.0012 | 1418 ± 190 | 56 ± 2.9 | 1.168 ± 0.11
303.15 K, x1 = 0.4308 | 1111.2 ± 4.7 | 1.5585 ± 0.0012 | 1459 ± 190 | 62.5 ± 3.2 | 1.334 ± 0.13
303.15 K, x1 = 0.5457 | 1113.2 ± 4.7 | 1.5583 ± 0.0012 | 1505 ± 200 | 70.14 ± 3.6 | 1.566 ± 0.15
303.15 K, x1 = 0.6271 | 1115.3 ± 4.7 | 1.5581 ± 0.0012 | 1537 ± 200 | 75.82 ± 3.8 | 1.771 ± 0.16
303.15 K, x1 = 0.7371 | 1118 ± 4.7 | 1.5578 ± 0.0012 | 1580 ± 210 | 84.11 ± 4.2 | 2.086 ± 0.19
303.15 K, x1 = 0.8079 | 1122 ± 4.8 | 1.5576 ± 0.0012 | 1607 ± 210 | 87.59 ± 4.4 | 2.353 ± 0.21
303.15 K, x1 = 0.9439 | 1124 ± 4.8 | 1.5572 ± 0.0012 | 1662 ± 210 | 96.09 ± 4.8 | 2.948 ± 0.26
303.15 K, x1 = 1 | 1125.5 ± 4.8 | 1.5571 ± 0.0012 | 1684 ± 220 | 99.08 ± 4.9 | 3.275 ± 0.29
313.15 K, x1 = 0.144 | 1085.1 ± 4.9 | 1.5508 ± 0.0012 | 820 ± 130 | 41.6 ± 2.2 | 0.7705 ± 0.079
313.15 K, x1 = 0.2517 | 1089.3 ± 5 | 1.5507 ± 0.0012 | 924 ± 140 | 49.11 ± 2.6 | 0.9236 ± 0.092
313.15 K, x1 = 0.3354 | 1092.1 ± 5 | 1.5506 ± 0.0012 | 1004 ± 150 | 55.33 ± 2.9 | 1.047 ± 0.1
313.15 K, x1 = 0.4308 | – | 1.5504 ± 0.0012 | 1097 ± 160 | 62.12 ± 3.2 | 1.178 ± 0.11
313.15 K, x1 = 0.5457 | 1100.5 ± 5 | 1.5502 ± 0.0012 | 1207 ± 170 | 71.23 ± 3.6 | 1.357 ± 0.13
313.15 K, x1 = 0.6271 | 1103.5 ± 5 | 1.55 ± 0.0012 | 1283 ± 180 | 78.22 ± 4 | 1.497 ± 0.14
313.15 K, x1 = 0.7371 | 1107.2 ± 5.1 | 1.5497 ± 0.0012 | 1385 ± 190 | 83.11 ± 4.2 | 1.762 ± 0.16
313.15 K, x1 = 0.8079 | 1110.2 ± 5.1 | 1.5494 ± 0.0012 | 1452 ± 190 | 86.41 ± 4.3 | 1.986 ± 0.18
313.15 K, x1 = 0.9439 | 1116.3 ± 5.1 | 1.549 ± 0.0012 | 1577 ± 210 | 94.66 ± 4.7 | 2.596 ± 0.23
313.15 K, x1 = 1 | 1119.1 ± 5.1 | 1.5488 ± 0.0012 | 1631 ± 210 | 96.11 ± 4.8 | 2.97 ± 0.27
323.15 K, x1 = 0.144 | 1073.5 ± 5.3 | 1.548 ± 0.0012 | 738 ± 120 | 40.52 ± 2.2 | 0.6646 ± 0.07
323.15 K, x1 = 0.2517 | 1078.6 ± 5.3 | 1.5479 ± 0.0012 | 758 ± 120 | 47.99 ± 2.5 | 0.8222 ± 0.083
323.15 K, x1 = 0.3354 | 1082.5 ± 5.3 | 1.5478 ± 0.0012 | 850 ± 130 | 53.34 ± 2.8 | 0.9386 ± 0.093
323.15 K, x1 = 0.4308 | 1086.3 ± 5.3 | 1.5477 ± 0.0012 | 955 ± 140 | 60.11 ± 3.1 | 1.059 ± 0.1
323.15 K, x1 = 0.5457 | 1091.6 ± 5.4 | 1.5475 ± 0.0012 | 1082 ± 160 | 68.77 ± 3.5 | 1.192 ± 0.12
323.15 K, x1 = 0.6271 | 1095 ± 5.4 | 1.5475 ± 0.0012 | 1170 ± 170 | 75.22 ± 3.8 | 1.287 ± 0.12
323.15 K, x1 = 0.7371 | 1100 ± 5.4 | 1.5474 ± 0.0012 | 1290 ± 180 | 82.89 ± 4.2 | 1.474 ± 0.14
323.15 K, x1 = 0.8079 | 1103 ± 5.4 | 1.547 ± 0.0012 | 1365 ± 180 | 85.22 ± 4.3 | 1.635 ± 0.15
323.15 K, x1 = 0.9439 | 1110.1 ± 5.4 | 1.5466 ± 0.0012 | 1511 ± 200 | 93.44 ± 4.7 | 2.122 ± 0.19
323.15 K, x1 = 1 | 1114.1 ± 5.5 | 1.5463 ± 0.0012 | 1571 ± 200 | 94.1 ± 4.7 | 2.442 ± 0.22
